Measured values published in BindingDB's records for doi:10.1021/jm061152t (Abbott Laboratories, 2007).
“And” between values parts separate entries of the source, which are not always exact repeats. Equal entries are not always repeated.

What was measured:
[1] = target: Apoptosis regulator Bcl-2 (Homo sapiens, UniProt P10415); assay: Fluorescence Polarization Assay and FL5.12 Cellular Assay
Procedure: (§1) The binding affinities (Ki) of compounds were determined using fluorescence polarization assays (FPA) that measure their ability to competitively displace a Bad-derived peptide from Bcl-xL. Compound efficacy (EC50) in a cellular context was evaluated by testing their ability to reverse the protection from cytokine withdrawal afforded by overexpression of Bcl-xL in the IL-3 dependent murine pro-B cell line FL5.12.

Bcl-2-like protein 1 [2] = target: T1, Bcl-2-like protein 1 (Homo sapiens, UniProt Q07817); assay: Fluorescence Polarization (FP) Assay and FL5.12 Cellular Assay; details: pH 7.4; 25 °C
T1 sequence (Q07817 whole entry): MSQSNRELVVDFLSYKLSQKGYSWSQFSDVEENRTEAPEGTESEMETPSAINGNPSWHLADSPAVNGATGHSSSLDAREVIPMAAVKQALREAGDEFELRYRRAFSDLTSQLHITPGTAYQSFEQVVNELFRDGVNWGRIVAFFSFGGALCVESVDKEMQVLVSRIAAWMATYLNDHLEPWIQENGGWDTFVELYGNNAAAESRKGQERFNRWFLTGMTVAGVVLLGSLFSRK
Procedure: as §1, with “Bcl-xL. […]” for “Bcl-xL.”

Bcl-2-like protein 1 [3] = target: T1, Bcl-2-like protein 1; assay: Fluorescence Polarization Assay and FL5.12 Cellular Assay
Procedure: as §1

[4] = The binding affinities (Ki) of compounds were determined using fluorescence polarization assays (FPA) that measure their ability to competitively displace a Bad-derived peptide from Bcl-xL. Compound efficacy (EC50) in a cellular context was evaluated by testing their ability to reverse the protection from cytokine w

Sequence of Apoptosis regulator Bcl-2 (P10415 whole entry): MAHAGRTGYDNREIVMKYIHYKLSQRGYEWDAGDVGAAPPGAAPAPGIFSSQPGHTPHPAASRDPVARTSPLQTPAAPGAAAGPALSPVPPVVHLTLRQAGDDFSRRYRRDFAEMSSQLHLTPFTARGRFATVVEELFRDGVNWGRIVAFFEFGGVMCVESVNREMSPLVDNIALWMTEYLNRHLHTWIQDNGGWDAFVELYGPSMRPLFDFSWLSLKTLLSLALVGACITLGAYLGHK

SMILES | EC50 [1] | Ki [1] | EC50 (Bcl-2-like protein 1 [2]) | IC50 (Bcl-2-like protein 1 [2]) | Ki (Bcl-2-like protein 1 [2]) | Ki (Bcl-2-like protein 1 [3]) | EC50 [4]
CCCCC1(OC)CCN(c2ccc(C(=O)NS(=O)(=O)c3ccc(N[C@H](CCN(C)C)CSc4ccccc4)c([N+](=O)[O-])c3)cc2)CC1 [4-(4-butyl-4-methoxypiperidin-1-yl)-N-[(4-{[(2R)-4-(dimethylamino)-1-(phenylsulfanyl)butan-2-yl]amino}-3-nitrobenzene)sulfonyl]benzamide] | 3 µM | 0.02 µM | 8 µM | 0.312 µM | 0.0013 µM |  | 
CN(C)CC[C@H](CSc1ccccc1)Nc1ccc(S(=O)(=O)NC(=O)c2ccc(N3CCN(Cc4ccccc4-c4ccc(S(C)(=O)=O)cc4)CC3)cc2)cc1[N+](=O)[O-] [N-[(4-{[(2R)-4-(dimethylamino)-1-(phenylsulfanyl)butan-2-yl]amino}-3-nitrobenzene)sulfonyl]-4-(4-{[2-(4-methanesulfonylphenyl)phenyl]methyl}piperazin-1-yl)benzamide] |  |  |  |  |  | 0.0091 µM | 0.46 µM and 0.53 µM
